# Target: T1, EAG1 (mEAG1) (Mus musculus, UniProt Q60603)
# T1 construct: gene Kcnh1
# T1 sequence (Q60603 505-702): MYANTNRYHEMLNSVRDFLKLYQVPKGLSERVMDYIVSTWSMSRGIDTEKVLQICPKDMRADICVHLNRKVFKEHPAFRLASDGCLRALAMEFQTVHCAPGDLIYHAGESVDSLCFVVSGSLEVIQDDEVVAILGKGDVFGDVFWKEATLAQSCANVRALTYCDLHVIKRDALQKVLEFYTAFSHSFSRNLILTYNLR
# Test: tryptophan fluorescence titration of purified C-terminal region; gating effect also seen in inside-out patches
# Type: binding
smiles,measurement,value
O=c1c(O)c(-c2cc(O)c(O)c(O)c2)oc2cc(O)cc(O)c12 [myricetin],Kd,> 100 µM

# Reference: PMC2932742, “Identifying Regulators for EAG1 Channels with a Novel Electrophysiology and Tryptophan Fluorescence Based Screen” (PLoS ONE, 2010)
